Where “and” joins values, the source holds several entries; their conditions need not be identical. Equal values may be shown once. Toxic doses and inconclusive results are not listed.
Tested on: BDF1 mice, L1210 leukemia sc, survival T/C
Experiment: NCI In Vivo Anticancer Drug Screen. Data for tumor model L1210 Leukemia (subcutaneous) in B6D2F1 (BDF1) mice
Conditions: higher = longer survival
In short: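 Antitumor activity is assessed in mice with transplanted tumors by comparing the treated group (T) with the vehicle control group (C).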

[1] = endpoint: median survival time, dose: 108.0 mg/kg/injection, schedule: Q01DX Z (sc), vehicle: methylcellulose (MC)
[2] = endpoint: median survival time, dose: 180.0 mg/kg/injection, schedule: Q01DX Z (sc), vehicle: methylcellulose (MC)
[3] = endpoint: median survival time, dose: 3.0 mg/kg/injection, schedule: Q01DX Z (sc), vehicle: methylcellulose (MC)

C[C@]12C=CC(=O)C=C1CC[C@@H]1[C@@H]2C(=O)C[C@@]2(C)[C@H]1CC[C@]2(O)C(=O)CO
T/C (endpoint: median survival time, dose: 25.0 mg/kg/injection, schedule: Q01DX009 (sc), vehicle: water): 100 % of control
T/C (endpoint: median survival time, dose: 50.0 mg/kg/injection, schedule: Q01DX009 (sc), vehicle: water): 100 % of control
T/C (endpoint: median survival time, dose: 100.0 mg/kg/injection, schedule: Q01DX009 (sc), vehicle: water): 100 % of control
T/C [1]: 109 % of control
T/C (endpoint: median survival time, dose: 140.0 mg/kg/injection, schedule: Q01DX Z (oral), vehicle: water): 111 % of control
T/C (endpoint: median survival time, dose: 140.0 mg/kg/injection, schedule: Q02DX Z (sc), vehicle: water): 122 % of control
T/C (endpoint: median survival time, dose: 180.0 mg/kg/injection, schedule: Q01DX009 (sc), vehicle: water): 116 % of control
T/C [2]: 100 % of control
T/C (endpoint: median survival time, dose: 180.0 mg/kg/injection, schedule: Q02DX009 (sc), vehicle: steriod suspending solution): 107 % of control
T/C (endpoint: median survival time, dose: 180.0 mg/kg/injection, schedule: Q02DX Z (sc), vehicle: steriod suspending solution): 111 % of control
T/C (endpoint: median survival time, dose: 200.0 mg/kg/injection, schedule: Q01DX009 (sc), vehicle: water): 100 % of control
T/C (endpoint: median survival time, dose: 233.0 mg/kg/injection, schedule: Q01DX Z (oral), vehicle: water): 111 % of control
T/C (endpoint: median survival time, dose: 300.0 mg/kg/injection, schedule: Q01DX Z (sc), vehicle: methylcellulose (MC)): 109 % of control and 112 % of control
T/C (endpoint: median survival time, dose: 300.0 mg/kg/injection, schedule: Q02DX009 (sc), vehicle: steriod suspending solution): 104 % of control
T/C (endpoint: median survival time, dose: 300.0 mg/kg/injection, schedule: Q02DX Z (sc), vehicle: steriod suspending solution): 105 % of control
T/C (endpoint: median survival time, dose: 389.0 mg/kg/injection, schedule: Q01DX Z (oral), vehicle: water): 116 % of control
T/C (endpoint: median survival time, dose: 389.0 mg/kg/injection, schedule: Q02DX Z (sc), vehicle: water): 155 % of control
T/C (endpoint: median survival time, dose: 400.0 mg/kg/injection, schedule: Q01DX009 (sc), vehicle: water): 88 % of control and 100 % of control
T/C (endpoint: median survival time, dose: 500.0 mg/kg/injection, schedule: Q01DX Z (sc), vehicle: methylcellulose (MC)): 104 % of control and 112 % of control
T/C (endpoint: median survival time, dose: 500.0 mg/kg/injection, schedule: Q02DX009 (sc), vehicle: steriod suspending solution): 101 % of control
T/C (endpoint: median survival time, dose: 500.0 mg/kg/injection, schedule: Q02DX Z (sc), vehicle: steriod suspending solution): 100 % of control
T/C (endpoint: median survival time, dose: 648.0 mg/kg/injection, schedule: Q01DX Z (oral), vehicle: water): 122 % of control
T/C (endpoint: median survival time, dose: 800.0 mg/kg/injection, schedule: Q01DX009 (sc), vehicle: water): 94 % of control and 100 % of control
T/C (endpoint: median survival time, dose: 833.0 mg/kg/injection, schedule: Q01DX Z (sc), vehicle: methylcellulose (MC)): 100 % of control and 112 % of control
T/C (endpoint: median survival time, dose: 833.0 mg/kg/injection, schedule: Q02DX009 (sc), vehicle: steriod suspending solution): 103 % of control
T/C (endpoint: median survival time, dose: 833.0 mg/kg/injection, schedule: Q02DX Z (sc), vehicle: steriod suspending solution): 105 % of control
T/C (endpoint: median survival time, dose: 1080.0 mg/kg/injection, schedule: Q01DX Z (oral), vehicle: water): 111 % of control
T/C (endpoint: median survival time, dose: 1080.0 mg/kg/injection, schedule: Q02DX Z (sc), vehicle: water): 155 % of control
T/C (endpoint: median survival time, dose: 1388.0 mg/kg/injection, schedule: Q02DX009 (sc), vehicle: steriod suspending solution): 101 % of control
T/C (endpoint: median survival time, dose: 1388.0 mg/kg/injection, schedule: Q02DX Z (sc), vehicle: steriod suspending solution): 100 % of control

Oc1cc(CN(CCCl)CCCl)c(O)cc1CN(CCCl)CCCl
T/C [3]: 100 % of control
T/C (endpoint: median survival time, dose: 5.0 mg/kg/injection, schedule: Q01DX Z (sc), vehicle: methylcellulose (MC)): 105 % of control
T/C (endpoint: median survival time, dose: 8.4 mg/kg/injection, schedule: Q01DX Z (sc), vehicle: methylcellulose (MC)): 110 % of control
T/C (endpoint: median survival time, dose: 14.0 mg/kg/injection, schedule: Q01DX Z (sc), vehicle: methylcellulose (MC)): 100 % of control
T/C (endpoint: median survival time, dose: 23.0 mg/kg/injection, schedule: Q01DX Z (sc), vehicle: methylcellulose (MC)): 105 % of control
T/C (endpoint: median survival time, dose: 39.0 mg/kg/injection, schedule: Q01DX Z (sc), vehicle: methylcellulose (MC)): 110 % of control
T/C (endpoint: median survival time, dose: 65.0 mg/kg/injection, schedule: Q01DX Z (sc), vehicle: methylcellulose (MC)): 110 % of control
T/C [1]: 120 % of control
T/C [2]: 120 % of control

COC(=N)N
T/C (endpoint: median survival time, dose: 1.8 mg/kg/injection, schedule: Q01DX Z (sc), vehicle: methylcellulose (MC)): 100 % of control
T/C [3]: 100 % of control

CCCCCCCCCCCCCCCCNC(=S)N/N=C/c1ccccc1OC
T/C (endpoint: median survival time, dose: 78.0 mg/kg/injection, schedule: Q01DX Z (sc), vehicle: water): 100 % of control
T/C (endpoint: median survival time, dose: 130.0 mg/kg/injection, schedule: Q01DX Z (sc), vehicle: water): 105 % of control
T/C (endpoint: median survival time, dose: 216.0 mg/kg/injection, schedule: Q01DX Z (sc), vehicle: water): 111 % of control
T/C (endpoint: median survival time, dose: 360.0 mg/kg/injection, schedule: Q01DX Z (sc), vehicle: water): 105 % of control
T/C (endpoint: median survival time, dose: 600.0 mg/kg/injection, schedule: Q01DX Z (sc), vehicle: water): 100 % of control

O=c1[nH]cnc2[nH]ncc12
T/C (endpoint: mean survival time, dose: 20.0 mg/kg/injection, schedule: Q01DX001 (ip), vehicle: saline): 97 % of control
T/C (endpoint: mean survival time, dose: 30.0 mg/kg/injection, schedule: Q01DX001 (ip), vehicle: saline): 101 % of control
T/C (endpoint: mean survival time, dose: 40.0 mg/kg/injection, schedule: Q01DX001 (ip), vehicle: saline): 98 % of control
T/C (endpoint: mean survival time, dose: 80.0 mg/kg/injection, schedule: Q01DX001 (ip), vehicle: saline): 98 % of control
T/C (endpoint: median survival time, dose: 10.0 mg/kg/injection, schedule: Q01DX009 (ip), vehicle: saline): 99 % of control (2×) and 100 % of control
T/C (endpoint: median survival time, dose: 20.0 mg/kg/injection, schedule: Q01DX001 (ip), vehicle: saline): 90 % of control
T/C (endpoint: median survival time, dose: 20.0 mg/kg/injection, schedule: Q01DX009 (ip), vehicle: saline): 100 % of control and 101 % of control (2×)
T/C (endpoint: median survival time, dose: 30.0 mg/kg/injection, schedule: Q01DX001 (ip), vehicle: saline): 100 % of control
T/C (endpoint: median survival time, dose: 40.0 mg/kg/injection, schedule: Q01DX001 (ip), vehicle: saline): 100 % of control
T/C (endpoint: median survival time, dose: 40.0 mg/kg/injection, schedule: Q01DX009 (ip), vehicle: saline): 99 % of control (2×) and 100 % of control
T/C (endpoint: median survival time, dose: 80.0 mg/kg/injection, schedule: Q01DX001 (ip), vehicle: saline): 100 % of control

NC(Cc1ccc(N(CCCl)CCCl)cc1)C(=O)O (stereo not given)
T/C (endpoint: median survival time, dose: 1.09 mg/kg/injection, schedule: Q01DX Z (sc), vehicle: water): 100 % of control
T/C (endpoint: median survival time, dose: 1.81 mg/kg/injection, schedule: Q01DX Z (sc), vehicle: water): 100 % of control
T/C (endpoint: median survival time, dose: 3.0 mg/kg/injection, schedule: Q01DX Z (sc), vehicle: saline): 100 % of control
T/C (endpoint: median survival time, dose: 3.02 mg/kg/injection, schedule: Q01DX Z (sc), vehicle: water): 95 % of control
T/C (endpoint: median survival time, dose: 5.0 mg/kg/injection, schedule: Q01DX Z (sc), vehicle: saline): 111 % of control
T/C (endpoint: median survival time, dose: 5.04 mg/kg/injection, schedule: Q01DX Z (sc), vehicle: water): 100 % of control
T/C (endpoint: median survival time, dose: 8.4 mg/kg/injection, schedule: Q01DX Z (sc), vehicle: water): 100 % of control
T/C (endpoint: median survival time, dose: 14.0 mg/kg/injection, schedule: Q01DX Z (sc), vehicle: saline): 155 % of control
T/C (endpoint: median survival time, dose: 23.0 mg/kg/injection, schedule: Q01DX Z (sc), vehicle: saline): 122 % of control
T/C (endpoint: median survival time, dose: 39.0 mg/kg/injection, schedule: Q01DX Z (sc), vehicle: saline): 122 % of control
T/C (endpoint: median survival time, dose: 65.0 mg/kg/injection, schedule: Q01DX Z (sc), vehicle: saline): 122 % of control
T/C (endpoint: median survival time, dose: 108.0 mg/kg/injection, schedule: Q01DX Z (sc), vehicle: saline): 111 % of control

Nc1[nH]c(=O)nc2[nH]ncc12
T/C (endpoint: median survival time, dose: 46.8 mg/kg/injection, schedule: Q01DX Z (sc), vehicle: methylcellulose (MC)): 100 % of control
T/C (endpoint: median survival time, dose: 78.0 mg/kg/injection, schedule: Q01DX Z (sc), vehicle: methylcellulose (MC)): 100 % of control
T/C (endpoint: median survival time, dose: 130.0 mg/kg/injection, schedule: Q01DX Z (sc), vehicle: methylcellulose (MC)): 100 % of control
T/C (endpoint: median survival time, dose: 216.0 mg/kg/injection, schedule: Q01DX Z (sc), vehicle: methylcellulose (MC)): 108 % of control
T/C (endpoint: median survival time, dose: 360.0 mg/kg/injection, schedule: Q01DX Z (sc), vehicle: methylcellulose (MC)): 104 % of control
T/C (endpoint: median survival time, dose: 600.0 mg/kg/injection, schedule: Q01DX Z (sc), vehicle: methylcellulose (MC)): 100 % of control
